Patent US20220289765A1, “CRYSTAL OF CARCINOGENIC FUSED KINASE INHIBITOR AND APPLICATIONS THEREOF” (Simcere Pharmaceutical Co., Ltd., priority 2019, published 2022)

Experiments:
[1] = biological target: T1, ALK (Homo sapiens, UniProt Q9UM73); assay: Kinase inhibitory activity (33P-ATP filtration-binding, Reaction Biology Corp.); type: biochemical; details: read-out: Half Inhibitory Concentrations of Kinases IC50, ALK
T1 construct: purchased Reaction Biology Corp
Procedure: The inhibitory activity tests of compounds against kinases such as TrkA, TrkC, ALK, Ros1 were completed in Reaction Biology Corp. Certain concentrations of substrate, cofactors, kinases and test compounds (10 doses, 3-fold serial dilutions, 2% DMSO final concentration) were sequentially added to the reaction buffer (20 mM Hepes (pH 7.5), 10 mM MgCl2, 1 mM EGTA, 0.02% Brij35, 0.02 mg/mL BSA, 0.1 mM Na3VO4, 2 mM DTT, 1% DMSO), and mixed well. The resulting mixture was incubated at room temperature for 20 minutes, and a certain concentration of 33P-ATP was added to the reaction mixture to initiate the reaction, followed by incubation at room temperature for 120 minutes. Finally, the radioactivity of the reactants was detected by a filtration-binding method. The final kinase activity was expressed by the ratio of the remaining kinase activity in the test sample to the kinase activity of the DMSO control group. The dose-effect curve was fitted by GraphPad software and the IC50 values were calculated.

[2] = test system: human colon cancer cell line KM12 cells subcutaneous xenograft tumor; assay: Efficacy test in mice, KM12 subcutaneous xenograft; type: in vivo, BALB/c mouse; details: PO
Procedure: The in vivo efficacy of test drugs such as the compound of Formula (I) on human colon cancer cell line KM12 cells subcutaneous xenograft tumor in a BALB/c mouse model was evaluated.
The compounds were prepared into clear solutions using 5% DMSO+10% solutol+85% water as a solvent for administration in PO (gavage) groups.
The tumor diameter was measured twice a week using a vernier caliper. The formula for calculating the tumor volume is: V=0.5×a×b^2, wherein a and b represent the long diameter and the short diameter of the tumor, respectively. The antitumor efficacy of the compounds was evaluated with TGI (%), which reflects the inhibition rate of tumor growth.
Statistical analysis was performed using SPSS software based on relative tumor volume and tumor weight at the end of the experiment. Comparisons among multiple groups were analyzed by one-way ANOVA. If the variances were homogeneous (no significant difference in F-values), the analysis was performed by the Tukey's method, and if the variances were not homogeneous (significant difference in F-values), the test was performed by the Games-Howell method. P<0.05 was considered as a significant difference.

[3] = test system: Ba/F3 LMNA-NTRK1-WT stable transformant cell line; assay: Cell proliferation inhibition (CellTiter-Glo, 72 h); type: cell-based; details: Mus musculus, BaF3, read-out: Half Inhibitory Concentrations of Cells IC50, Ba/F3 LMNA-NTRK1-WT
Procedure: Adenosine Tri-Phosphate (ATP) is an energy carrier shared by various life activities in nature and is the smallest unit of energy storage and transfer. In CellTiter-Glo™ Live Cell Detection Kit, luciferase was used as a detection substance, and it required the involvement of ATP during luminescence. CellTiter-Glo™ reagent was added to the cell culture medium to measure a luminescence value, and the light signal was proportional to the amount of ATP in the system, and ATP was positively correlated to the number of viable cells. Therefore, by detecting the ATP content using the CellTiter-Glo Kit, cell proliferation can be detected. In this test, the cell line was Ba/F3 LMNA-NTRK1-WT stable transformant cell line, and the number of cells was 5000/well.
• a) Cells in the logarithmic growth phase were harvested and counted by using a […]. Cell viability was detected by trypan blue exclusion assay to ensure that the cell viability was above 90%. • b) The cell concentration was adjusted, and 90 μL cell suspension was added to a 96-well plate, respectively. • c) Cells in the 96-well plate were incubated overnight at 37° C., 5% CO2 and 95% humidity. […]
The data were analyzed using GraphPad Prism 5.0 software, and were fitted to obtain a dose-effect curve using a non-linear S-curve regression, and the IC50 values were calculated therefrom.

T1 sequence (Q9UM73 19-1620): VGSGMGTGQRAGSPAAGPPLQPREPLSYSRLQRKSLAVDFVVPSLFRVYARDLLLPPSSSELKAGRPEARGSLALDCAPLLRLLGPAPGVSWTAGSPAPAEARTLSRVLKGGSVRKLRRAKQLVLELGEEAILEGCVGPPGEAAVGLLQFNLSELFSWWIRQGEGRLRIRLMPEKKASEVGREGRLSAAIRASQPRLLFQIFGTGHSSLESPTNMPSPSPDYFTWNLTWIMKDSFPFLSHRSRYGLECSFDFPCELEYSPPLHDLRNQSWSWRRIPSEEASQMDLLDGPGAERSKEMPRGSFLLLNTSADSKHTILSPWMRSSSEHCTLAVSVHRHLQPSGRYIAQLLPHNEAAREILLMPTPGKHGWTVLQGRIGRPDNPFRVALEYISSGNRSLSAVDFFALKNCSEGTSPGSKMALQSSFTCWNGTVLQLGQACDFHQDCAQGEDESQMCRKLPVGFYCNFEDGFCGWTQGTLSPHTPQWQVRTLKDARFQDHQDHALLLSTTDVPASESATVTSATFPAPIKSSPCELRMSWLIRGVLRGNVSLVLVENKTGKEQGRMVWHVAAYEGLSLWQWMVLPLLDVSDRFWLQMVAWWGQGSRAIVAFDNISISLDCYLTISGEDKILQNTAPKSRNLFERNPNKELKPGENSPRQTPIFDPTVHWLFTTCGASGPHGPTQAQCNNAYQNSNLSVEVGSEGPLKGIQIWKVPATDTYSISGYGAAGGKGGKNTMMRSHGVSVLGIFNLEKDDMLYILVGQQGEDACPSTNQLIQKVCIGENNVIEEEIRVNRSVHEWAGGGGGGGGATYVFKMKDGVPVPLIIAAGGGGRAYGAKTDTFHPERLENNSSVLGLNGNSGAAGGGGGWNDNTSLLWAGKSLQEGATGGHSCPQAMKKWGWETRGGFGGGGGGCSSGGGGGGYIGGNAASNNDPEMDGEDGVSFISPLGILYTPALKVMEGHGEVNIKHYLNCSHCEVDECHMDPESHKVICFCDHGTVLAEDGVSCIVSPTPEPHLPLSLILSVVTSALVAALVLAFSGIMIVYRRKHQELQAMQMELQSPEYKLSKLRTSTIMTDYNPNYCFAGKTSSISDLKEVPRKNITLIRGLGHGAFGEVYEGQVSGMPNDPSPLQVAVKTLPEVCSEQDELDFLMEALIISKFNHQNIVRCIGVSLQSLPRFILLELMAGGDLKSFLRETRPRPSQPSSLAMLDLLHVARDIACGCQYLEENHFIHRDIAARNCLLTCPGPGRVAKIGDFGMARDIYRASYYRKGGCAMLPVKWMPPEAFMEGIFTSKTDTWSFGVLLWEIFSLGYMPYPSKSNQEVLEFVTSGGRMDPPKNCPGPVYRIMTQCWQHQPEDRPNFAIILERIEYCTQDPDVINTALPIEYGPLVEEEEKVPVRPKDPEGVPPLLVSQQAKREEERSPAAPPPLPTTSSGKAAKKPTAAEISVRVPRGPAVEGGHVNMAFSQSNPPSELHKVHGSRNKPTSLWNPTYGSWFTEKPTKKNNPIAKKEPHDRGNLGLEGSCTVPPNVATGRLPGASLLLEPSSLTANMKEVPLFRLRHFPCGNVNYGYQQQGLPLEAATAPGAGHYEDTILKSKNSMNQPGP

IC50 [1]: 13 nM
IC50 [3]: 1.26 nM
Compound: O=C1NC2(CC2)COc2ncc(F)cc2[C@H]2CCON2c2ccn3ncc1c3n2 [Compound of Formula (I)]
T/C ([2]; 3 mg/kg): 33.18%
TGI ([2]; 3 mg/kg): 71.23%
T/C ([2]; 15 mg/kg): 15.63%
TGI ([2]; 15 mg/kg): 88.61%
